Blank lines part the entries; values can stand above or below the molecule they belong to.
Tests used:
Assay type in all cases: in vivo, BALB/c nude mice
[1] = Example 8 pharmacokinetics assay for efficacy study (plasma, liver); conditions: mouse, po, 10 mg/kg, p.o.
Method: For efficacy study, agents were tested in the A375 human melanoma xenografts model. Compound 8, Compound 26, and Compound 38 were administered to BALB/c nude mice bearing A375 xenografts from day 0 and dosed p.o. twice per day (BID). Compound 8 and Compound 26 were dosed at 10 mg/kg for 21 days. Compound 38 was dosed at 10 mg/kg for 10 days. The known BRAF inhibitor encorafenib was used as a positive control. encorafenib was administered from day 1 and dosed p.o. daily (QD) for 21 days and dosed at 35 mg/kg.
(§1) The plasma samples were collected at predetermined time points for PK analysis. For non-termination plasma collection, blood samples were collected into the 1.5 mL Eppendorf tubes containing 3 μL of 0.5 M EDTA-K2. For termination plasma collection, the mice were euthanized at predetermined time points post the treatment and the blood samples were collected into the 1.5 mL Eppendorf tubes containing 15 μL of 0.5 M EDTA-K2. And then the anticoagulant blood samples were centrifuged at 2,500 g at 4° C. for 15 minutes. The plasma samples were separated into 2 aliquots. The 1st was used for PK analysis, and the 2nd served as backup. The samples were stored at −80° C. before bioanalysis.
(§2) Liver samples were collected at predetermined time points for PK analysis. The left lobe of the liver was dissected out and split into 2 parts. The 1st part was used for PK analysis and the 2nd part served as the backup for the study. The samples were transferred into pre-labeled tubes and quickly froze in liquid nitrogen within 2 minutes after dissection. The samples were stored at −80° C. before bioanalysis.
The harvested plasma and liver samples were processed for pharmacokinetics analysis by LC-MS/MS with a concentration range of 2.0~2000 ng/mL for encorafenib in plasma and liver homogenate, 10.0-10,000 ng/mL for Compound 8 and Compound 38 in plasma and liver homogenate, 20.0~20,000 ng/mL for Compound 26 in plasma and liver homogenate.

[2] = Example 6 pharmacokinetics assay for efficacy study (plasma, liver); conditions: 10 mg/kg, p.o., BID × 21 days; for concentration at 6 h: mouse, po
Method: For efficacy study, compounds were tested in the A375 human melanoma xenografts. Known BRAF inhibitors encorafenib, and dabrafenib were used as positive controls. Encorafenib and dabrafenib were administered to BALB/c nude mice bearing A375 tumors on PG-D1 and dosed PO daily (QD) for 3 weeks. Encorafenib was dosed at 35 mg/kg. Dabrafenib was dosed at 100 mg/kg. Compound 83, Compound 93, Compound 70, and Compound 54 were administered to BALB/c nude mice bearing A375 tumors on PG-DO and dosed PO twice per day (BID) for 3 weeks. Compound 83, Compound 93, Compound 70, and Compound 54 were dosed at 10 mg/kg.
as §1, with “The” for “For non-termination plasma collection, blood samples were collected into the 1.5 mL Eppendorf tubes containing 3 μL of 0.5 M EDTA-K2. For termination plasma collection, the”, “treatment. The” for “treatment and the”
as §2
For efficacy study, the harvested plasma and liver were processed for pharmacokinetics analysis by LC/MS/MS with a concentration range of 2.00-2000 ng/mL for Encorafenib and Dabrafenib in plasma, 0.20-200 ng/mL for Encorafenib and Dabrafenib in liver, 50.0-50000 ng/mL for compound 83 and compound 70 in plasma, 20.0-20000 ng/mL for Compound 93 and Compound 54 in plasma, 5.00-5000 ng/mL for compound 93, compound 83, compound 70 and compound 54 in liver.

[3] = Example 7 pharmacokinetics assay for efficacy study (plasma, liver); conditions: mouse, po, 10 mg/kg, p.o.
Method: For efficacy study, agents were tested in the A375 human melanoma xenografts. Compound 118, Compound 156, and Compound 180 were administered to BALB/c nude mice bearing A375 xenografts from day 0 and dosed p.o. twice per day (BID). Compound 141 was administered from day 0 and dosed p.o. twice per day (BID) or dosed p.o. daily (QD) from day 1. Compound 141, Compound 118, Compound 156, and Compound 180 were dosed at 10 mg/kg for 14 days. The known BRAF inhibitor Dabrafenib was used as a positive control. Dabrafenib was administered from day 1 and dosed p.o. daily (QD) for 14 days and dosed at 100 mg/kg.
as §1, with “The” for “For non-termination plasma collection, blood samples were collected into the 1.5 mL Eppendorf tubes containing 3 μL of 0.5 M EDTA-K2. For termination plasma collection, the”, “treatment. The” for “treatment and the”
as §2
The harvested plasma and liver samples were processed for pharmacokinetics analysis by LC-MS/MS with a concentration range of 0.500~500 ng/mL for Dabrafenib in plasma and liver homogenate, 20.0~20,000 ng/mL for Compound 141, Compound 180 and Compound 118 in plasma and liver, 10.0~10,000 ng/mL for Compound 156 in plasma and liver.

[4] = liver, BID × 21 days, read-out: Concentration in Liver (mean ± SEM)
[5] = plasma, BID × 21 days, read-out: Concentration in Plasma (mean ± SEM)
[6] = liver, read-out: Concentration in Liver (mean ± SEM)
[7] = plasma, read-out: Concentration in Plasma (mean ± SEM)
[8] = liver, BID × 14 days, read-out: Concentration in Liver (mean ± SEM)
[9] = plasma, BID × 14 days, read-out: Concentration in Plasma (mean ± SEM)

concentration at 6 h [1, 4]: 738 ± 299 ng/g | concentration at 6 h [1, 5]: 984 ± 364 ng/mL
SMILES: CCN(C)S(=O)(=O)Nc1ccc(F)c(Oc2ccc3ncn(C4CC5(CCN(C6CCC(c7cc8c(cc7F)c(N7CCC(=O)NC7=O)nn8C)CC6)CC5)C4)c(=O)c3c2)c1C#N (single isomer, unassigned) [Compound 8, 6-[2-cyano-3-[[ethyl(methyl)sulfamoyl]amino]-6-fluoro-phenoxy]-3-[7-[4-[3-(2,4-dioxohexahydropyrimidin-1-yl)-5-fluoro-1-methyl-indazol-6-yl]cyclohexyl]-7-azaspiro[3.5]nonan-2-yl]-4-oxo-quinazoline]

concentration at 6 h ([1]; liver, BID × 10 days, read-out: Concentration in Liver (mean ± SEM)): 17200 ± 2570 ng/g | concentration at 6 h ([1]; plasma, BID × 10 days, read-out: Concentration in Plasma (mean ± SEM)): 18300 ± 2240 ng/mL
SMILES: CCN(C)S(=O)(=O)Nc1ccc(F)c(Oc2ccc3ncn([C@H]4COC5(CCC(N6CCC(c7cc8c(cc7F)c(N7CCC(=O)NC7=O)nn8C)C(F)(F)C6)CC5)C4)c(=O)c3c2)c1C#N (single isomer, unassigned) [Compound 38]

concentration at 6 h [2, 6]: 4240 ± 955 ng/g | concentration at 6 h [2, 7]: 3990 ± 634 ng/mL
SMILES: CCN(C)S(=O)(=O)Nc1ccc(F)c(Oc2ccc3ncc([C@@H]4COC5(CCN(C6CCC(c7cc8c(cc7F)c(N7CCC(=O)NC7=O)nn8C)CC6)CC5)C4)nc3c2)c1C#N (single isomer, unassigned) [Compound 54]

Concentration in Liver (mean ± SEM) ([2]; 6 h): 6392 ± 570 ng/g | Concentration in Plasma (mean ± SEM) ([2]; 6 h): 16083 ± 1345 ng/mL
SMILES: CCN(C)S(=O)(=O)Nc1ccc(F)c(Oc2ccc3ncn([C@H]4COC5(CCN(C6CC(c7cc8c(cc7F)c(N7CCC(=O)NC7=O)nn8C)C6)CC5)C4)c(=O)c3c2)c1C#N (single isomer, unassigned) [Compound 70]

concentration at 6 h [2, 6]: 11000 ± 1050 ng/g | concentration at 6 h [2, 7]: 17100 ± 1510 ng/mL
SMILES: CCN(C)S(=O)(=O)Nc1ccc(F)c(Oc2ccc3ncn(C4CC5(CCN(C6CCC(c7cc8c(cc7F)c(N7CCC(=O)NC7=O)nn8C)CC6F)CC5)C4)c(=O)c3c2)c1C#N (single isomer, unassigned) [Compound 83, 6-[2-cyano-3-[[ethyl(methyl)sulfamoyl]amino]-6-fluoro-phenoxy]-3-[7-[4-[3-(2,4-dioxohexahydropyrimidin-1-yl)-5-fluoro-1-methyl-indazol-6-yl]-2-fluoro-cyclohexyl]-7-azaspiro[3.5]nonan-2-yl]-4-oxo-quinazoline]

concentration at 6 h [2, 6]: 652 ± 180 ng/g | concentration at 6 h [2, 7]: 1100 ± 389 ng/mL
SMILES: Cn1nc(N2CCC(=O)NC2=O)c2cc(F)c(C3CCC(N4CCC5(CC4)CC(n4cnc6ccc(Oc7c(F)ccc(NS(=O)(=O)C8CCCC8)c7C#N)cc6c4=O)C5)CC3)cc21 (single isomer, unassigned) [Compound 93, N-[2-cyano-3-[3-[7-[4-[3-(2,4-dioxohexahydropyrimidin-1-yl)-5-fluoro-1-methyl-indazol-6-yl]cyclohexyl]-7-azaspiro[3.5]nonan-2-yl]-4-oxo-quinazolin-6-yl]oxy-4-fluoro-phenyl]cyclopentanesulfonamide]

concentration at 6 h [3, 8]: 102000 ± 1600 ng/g | concentration at 6 h [3, 9]: 4160 ± 503 ng/mL
SMILES: CCN(C)S(=O)(=O)Nc1ccc(F)c(Oc2ccc3ncc(OCC4CCN(C5CCC(c6cc7c(cc6F)c(N6CCC(=O)NC6=O)nn7C)CC5)CC4)nc3c2)c1C#N (single isomer, unassigned) [Compound 118, 7-[2-cyano-3-[[ethyl(methyl)sulfamoyl]amino]-6-fluoro-phenoxy]-2-[[1-[4-[3-(2,4-dioxohexahydropyrimidin-1-yl)-5-fluoro-1-methyl-indazol-6-yl]cyclohexyl]-4-piperidyl]methoxy]quinoxaline]

concentration at 6 h [3, 8]: 2400 ± 425 ng/g | concentration at 6 h [3, 9]: 1920 ± 363 ng/mL
SMILES: CCN(C)S(=O)(=O)Nc1ccc(F)c(Oc2ccc3ncc(C4CC5(CCN(C6CCC(c7cc8c(cc7F)c(N7CCC(=O)NC7=O)nn8C)CC6)CC5)C4)nc3c2)c1C#N (single isomer, unassigned) [Compound 180, 7-[2-cyano-3-[[ethyl(methyl)sulfamoyl]amino]-6-fluoro-phenoxy]-2-[7-[4-[3-(2,4-dioxohexahydropyrimidin-1-yl)-5-fluoro-1-methyl-indazol-6-yl]cyclohexyl]-7-azaspiro[3.5]nonan-2-yl]quinoxaline]

SMILES: CCN(C)S(=O)(=O)Nc1ccc(F)c(Oc2ccc3ncn([C@H]4COC5(CCN(C6CC7(C6)CN(c6cc8c(cc6F)c(N6CCC(=O)NC6=O)nn8C)C7)CC5)C4)c(=O)c3c2)c1C#N [Compound 26, (3R)-3-[6-[2-cyano-3-[[ethyl(methyl)sulfamoyl]amino]-6-fluoro-phenoxy]-4-oxo-quinazolin-3-yl]-8-[2-[3-(2,4-dioxohexahydropyrimidin-1-yl)-5-fluoro-1-methyl-indazol-6-yl]-2-azaspiro[3.3]heptan-6-yl]-1-oxa-8-azaspiro[4.5]decane]
concentration at 6 h [1, 4]: 4720 ± 367 ng/g | concentration at 6 h [1, 5]: 16000 ± 2060 ng/mL

SMILES: CCN(C)S(=O)(=O)Nc1ccc(F)c(Oc2ccc3ncn(C4CC5(CCN(C6CC7(C6)CN(c6cc8c(cc6F)c(N6CCC(=O)NC6=O)nn8C)C7)CC5)C4)c(=O)c3c2)c1C#N (stereo not drawn) [Compound 141, 6-[2-cyano-3-[[ethyl(methyl)sulfamoyl]amino]-6-fluoro-phenoxy]-3-[7-[2-[3-(2,4-dioxohexahydropyrimidin-1-yl)-5-fluoro-1-methyl-indazol-6-yl]-2-azaspiro[3.3]heptan-6-yl]-7-azaspiro[3.5]nonan-2-yl]-4-oxo-quinazoline]
concentration at 6 h [3, 8]: 6570 ± 341 ng/g | concentration at 6 h ([3]; liver, QD × 14 days, read-out: Concentration in Liver (mean ± SEM)): 7500 ± 286 ng/g | concentration at 6 h [3, 9]: 8750 ± 907 ng/mL | concentration at 6 h ([3]; plasma, QD × 14 days, read-out: Concentration in Plasma (mean ± SEM)): 11000 ± 474 ng/mL

concentration at 6 h [3, 8]: 1840 ± 305 ng/g | concentration at 6 h [3, 9]: 1870 ± 359 ng/mL
SMILES: CCN(C)S(=O)(=O)Nc1ccc(F)c(Oc2ccc3ncn(C4CC5(CCN(C6CCN(c7cc8c(cc7F)c(N7CCC(=O)NC7=O)nn8C)CC6)CC5)C4)c(=O)c3c2)c1C#N [Compound 156, 6-[2-cyano-3-[[ethyl(methyl)sulfamoyl]amino]-6-fluoro-phenoxy]-3-[7-[1-[3-(2,4-dioxohexahydropyrimidin-1-yl)-5-fluoro-1-methyl-indazol-6-yl]-4-piperidyl]-7-azaspiro[3.5]nonan-2-yl]-4-oxo-quinazoline]

Source: patent US20260297060A1, “COMPOUNDS FOR THE DEGRADATION OF MUTANT BRAF” (C4 THERAPEUTICS, INC., priority 2023, published 2026)
